Reference: US9434978B2, “Culture medium for screening or enrichment of methicillin-resistant S. aureus” (BIO-RAD INNOVATIONS, priority 2009, dated 2016)

System: MSSA
Assay: Specificity of the medium on the MSSA strains
Type: cell-based, Staphylococcus aureus
Details: 8 MSSA strains; for number of MSSA strains that grew at 24 h after stress: plates 3 days at 37° C. before inoculation
Text: The basal medium comprises peptone, salts, antifungal and antibacterial agents to inhibit the growth of Gram negative bacteria and fungi. The basal medium is chosen to promote the growth of staphylococci, in particular Staphylococcus aureus.
Several strains of MRSA (methicillin resistant S. aureus) and MSSA (methicillin susceptible S. aureus) have been chosen from a collection of strains. Strains were cultivated first on a non selective medium. The colonies are used to perform a “heavy inoculum or HI”, corresponding to approximately 10^8 bacteria/mL inoculated as a spot on a small portion of the plate, and a “light inoculum or LI”, corresponding to approximately 10^5 bacteria/mL streaked on a large portion of the plate. Plates were incubated for 48 h at 35-37° C. The reading was performed at 24 and 48 h of incubation time.
Abbreviations and legends to the Tables: • cefotetan (CTT) • ceftriaxone (CRO) • cefuroxime (CXM) • cefsulodin (CFS), • Cefepime (FEP) • Cefoperazone (CFP) • cefpodoxime (CPD) • moxalactam (MOX) • cefoxitin (FOX) • cefmetazole (CMT) • ceftiofur (XLN) • G: growth (if nothing else is written, “G” means growth with HI and LI at 24 h); Imp G: heavy growth; AG: absence of growth; cfu: colony forming unit; μcfu: pinpoint colonies; SENS: Sensitivity (%); SPE: Specificity (%); MRSA: methicillin-resistant Staphylococcus aureus; MSSA: methicillin-sensitive Staphylococcus aureus; MRSE: methicillin-resistant Staphylococcus epidermidis; MSSE: methicillin-sensitive Staphylococcus epidermidis; Results
When two cephalosporins are added, the stability of the formula is increased. Due to the fact that the molecules are unstable, growth of MSSA often appears after stress. The inventors have mimicked the stress due to transportation of the Petri dishes to the customer's lab, in summer, by placing the plates for 3 days at 37° C. before inoculation and incubation 24 or 48 h. The basal medium composition was the same as described in Example 1. Abbreviations have the same meaning.

SMILES	number of MSSA strains that grew at 24 h after stress	number of MSSA strains able to grow at 24 h (plates not submitted to stress)
CO/N=C(\C(=O)N[C@@H]1C(=O)N2C(C(=O)O)=C(CSc3nc(=O)c(=O)[nH]n3C)CS[C@H]12)c1csc(N)n1 [CRO, ceftriaxone]	four	one
CO[C@@]1(NC(=O)Cc2cccs2)C(=O)N2C(C(=O)O)=C(COC(N)=O)CS[C@@H]21 [FOX, cefoxitin]	4	
CO[C@@]1(NC(=O)C(C(=O)O)c2ccc(O)cc2)C(=O)N2C(C(=O)O)=C(CSc3nnnn3C)CO[C@@H]21 (stereo partly shown) [MOX, moxalactam]	4	
